Activity calls are given as the source filed them. No rule for the calls is given here.
Biological target: RanGTP-importin-beta complex (human Ran / KPNB1)
Assay: disruptors of RanGTP/KPNB1 binding – biochemical, FRET, CFP/YFP, cell-free homogeneous, confirmation (AID 2823)
Conditions: CFP-Ran/YFP-importin-beta FRET ratio

SMILES | IC50
O=C(NNc1c2ccccc2nc2ccccc12)C12CC3CC(CC(C3)C1)C2 | > 50 µM (inactive)
CCCOC(=O)CSC1=C(C#N)C(c2ccccc2OCC)C(C#N)C(=O)N1 (stereo not given) | > 50 µM (inactive)
COc1cc(/C=N/NC(=O)c2cc(C)oc2C)ccc1O | > 50 µM (inactive)
OCCC1CN(Cc2cccn2-c2cccnc2)CCN1Cc1ccc(F)cc1 (stereo not given) | > 50 µM (inactive)
NNc1nc2sc3c(c2c(=O)n1C1CCCCC1)CCN(Cc1ccccc1)C3 | 2.69 µM
O=C(CCCO)NNc1c2ccccc2nc2ccccc12 | > 50 µM (inactive)
COc1ccccc1CNC(=O)Cn1ccsc1=N | > 50 µM (inactive)
COc1ccccc1S(=O)Cc1ccc(C(=O)O)o1 (stereo not given) | > 50 µM (inactive)
COCCNC(=O)C(C)OC(=O)c1cc2occc2n1C (stereo not given) | > 50 µM (inactive)
O=C(c1cc2c(=O)n3ccccc3nc2s1)N1CCN(c2cccc(Cl)c2)CC1 | > 50 µM (inactive)
Cc1ccc(S(=O)(=O)NCCc2cn3nc(C)c(C)nc3n2)cc1C | 33.3 µM
O=C(NC1CC1)c1ccc2c(Cl)c3c(nc2c1)CCCC3 | > 50 µM (inactive)
CC(c1nc2ccccc2n1Cc1ccccc1)N1CCCCC1 (stereo not given) | > 50 µM (inactive)
COc1ccc(CNc2ccc3c(c2)ncn3-c2ccccc2OC)cc1 | > 50 µM (inactive)
Cn1c(SCc2ccccc2F)nnc1-c1ccccn1 | > 50 µM (inactive)
CC(=O)O[C@H]1CCC2C3CCC4=CC(=O)CCC4=C3C=C[C@@]21C (stereo not given in full) | > 50 µM (inactive)
CCOC(=O)CNc1ncc([N+](=O)[O-])cc1C#N | > 50 µM (inactive)
CCCCn1c(N)c(N(CCOC)C(=O)CN2c3ccccc3CC2C)c(=O)[nH]c1=O (stereo not given) | > 50 µM (inactive)
CSc1nsc2nc(=O)c(/C=C3\C=Nc4ccccc43)c(N)n12 | 22.6 µM
CC1(C)CC(=O)C=C(Nc2ccc(S(N)(=O)=O)cc2)C1 | > 50 µM (inactive)
CCOc1ccc(Nc2c3ccccc3nc3ccccc23)cc1 | > 50 µM (inactive)
Cc1ccc(S(=O)(=O)Nc2nc3ccccc3nc2NCc2ccco2)cc1 | 18.2 µM
Cc1cccc(NC(=O)c2cc3c(s2)-c2c(C)cccc2OC3)n1 | 7.45 µM
O=C(O)c1c2c(nc3ccccc13)/C(=C/c1ccc(OC(F)F)cc1)CCC2 | > 50 µM (inactive)
Cn1c(N/N=C/c2cc3ccccc3nc2Cl)nc2ccccc21 | > 120 µM (inactive)
CCCCc1cc(=O)oc2c(CN3CCCC3)c(O)c(Cl)cc12 | 23 µM
CC(=O)Nc1ccc(S(=O)(=O)NCc2nc(-c3cccc(C)c3)no2)cc1 | > 50 µM (inactive)

SMILES | IC50
Cc1cccn2c(=O)c(/C=C(\C#N)C(N)=O)c(Oc3ccccc3)nc12 | 1.96 µM
CC1(C)CC(=O)CC(=Nc2ccc3[nH]c(=O)[nH]c3c2)C1 | > 50 µM (inactive)
CC1CC1c1ccc(/C=C(\C#N)C(=O)Nc2ccc(Cl)cc2)o1 (stereo not given) | > 50 µM (inactive)
CCN1/C(=C/C=C/c2sc3ccccc3[n+]2CC)Sc2ccccc21 | 16.6 µM
CCN1/C(=C\C=C\C2=[N+](CC)c3ccccc3C2(C)C)C(C)(C)c2ccccc21 | 9.18 µM
Cc1cc(C)c2c(n1)nn1c(NCCCN(C)C)cc(C)nc21 | 22.3 µM
COc1cc(NC(=O)c2cc(-c3cccs3)on2)cc(OC)c1OC | > 50 µM (inactive)
CC(C)Cc1nnc(NC(=O)Cc2cccs2)s1 | > 50 µM (inactive)
COc1ccc(-n2c(N)c(C(=O)NCc3ccco3)c3nc4ccccc4nc32)c(OC)c1 | 21.9 µM
COCCNC(=O)/C(C#N)=C/c1c(N2CCN(c3ccc(OC)cc3)CC2)nc2c(C)cccn2c1=O | 39.2 µM
O=Cc1ccc(N2Cc3ccccc3C2)cc1 | > 50 µM (inactive)
O=c1cc(N2CCC3(CC2)OCCO3)[nH]c(=O)n1-c1ccc(Br)cc1 | > 50 µM (inactive)
O=C(Cc1cc(=O)oc2cc(O)ccc12)NCC1CCC(C(=O)O)CC1 (stereo not given) | 10.4 µM
CC1(C)CCC(=O)C=C1Nc1ccc(F)c(Cl)c1 | > 50 µM (inactive)
COC(=O)Cc1c(C)c2ccc(O)c(CNCc3ccc(OC)c(OC)c3)c2oc1=O | 6.13 µM
Cc1nc(Nc2cnc(/C=C/c3cc(C(=O)Nc4cccc(C(F)(F)F)c4)ccc3C)cn2)cc(N2CCNCC2)n1 | 19.7 µM
O=C(Cc1cc(=O)oc2cc(O)ccc12)N[C@@H](Cc1c[nH]c2ccccc12)C(=O)O | > 50 µM (inactive)
CC(C)Sc1nnc(CNC(=O)C23CC4CC(CC(C4)C2)C3)n1C1CCCCC1 | > 50 µM (inactive)
C/C(=N\NC(=S)NCc1ccccc1)c1cccc(Br)c1 | > 50 µM (inactive)
Cc1ccc(C(=O)NNc2c3ccccc3nc3ccccc23)cc1 | > 50 µM (inactive)
N=c1oc2ccccc2cc1-c1nc(-c2ccc(Cl)cc2)cs1 | 34.2 µM
CCCc1cc(=O)oc2c(CN3CCCC3)c(O)c(Cl)cc12 | 27.1 µM
C/C(=N\OCC(=O)OCC(=O)NC(=O)c1ccccc1)c1ccc2c(c1)OCO2 | > 50 µM (inactive)
O=c1c2cc(NC(=S)N3CCC(N4CCCCC4)CC3)ccc2nc2n1CCCCC2 | > 50 µM (inactive)
CCC1(C(=O)OC)NC(c2cccc(F)c2)C2C(=O)N(C)C(=O)C21 (stereo not given) | > 50 µM (inactive)
Cn1cnc(S(=O)(=O)N2CCN(c3ccc(Cl)cc3)CC2)c1 | > 50 µM (inactive)
COc1cc(CN2CCN(Cc3c[nH]c4ccccc34)CC2CCO)cc(OC)c1 (stereo not given) | > 50 µM (inactive)

SMILES | IC50
N#CC1=C(N)SC(N)=C(C#N)C1c1cccc(O)c1 | > 50 µM (inactive)
O=C1NC(=O)N(Cc2ccccc2)C(=O)/C1=C/N1CCCc2ccccc21 | > 50 µM (inactive)
NC(=O)c1ccccc1NC(=O)/C=C/c1ccc(Cl)cc1 | > 50 µM (inactive)
COc1ccc2c(c1)O/C(=C\c1ccco1)C2=O | 18.3 µM
Cn1c(=O)[nH]c2c(nc(-c3ccc(Cl)cc3)n2C)c1=O | 26.1 µM
CCOC(=O)c1c(NC(=O)C2CCCCC2)sc2c1CCN(CC)C2 | > 50 µM (inactive)
CCOC(=O)/C(=N\Nc1ccc(C(C)=O)cc1)c1csc(Nc2ccccc2)n1 | > 50 µM (inactive)
CS(=O)(=O)c1nsc2nc(=O)c(/C=C3\C=Nc4ccccc43)c(N)n12 | 15.1 µM
Oc1cccc(Nc2c3ccccc3nc3ccccc23)c1 | > 50 µM (inactive)
COc1ccc(OC)c(Nc2c3ccccc3nc3ccccc23)c1 | > 50 µM (inactive)
CCCC(=O)NNc1c2ccccc2nc2ccccc12 | > 50 µM (inactive)
O=C(Cn1nnc(-c2ccncc2)n1)NCCc1ccccc1 | > 50 µM (inactive)
CCN(Cc1ccccc1)C(=O)CN1C(=O)NC(CC)(c2ccc(F)cc2)C1=O (stereo not given) | > 50 µM (inactive)
Cc1c(CC(=O)O)c(=O)oc2c(C)c3occ(-c4ccc(F)cc4)c3cc12 | > 50 µM (inactive)
COc1ccc(CCNC(=O)c2cc3c(=O)n4ccccc4nc3n(C3CCCCC3)c2=N)cc1OC | 23.2 µM
CCNc1nnc(CSc2nc3ccccc3s2)s1 | > 50 µM (inactive)
Cc1c(NC2=CC(=O)CCC2)c(=O)n(-c2ccccc2)n1C | > 50 µM (inactive)
COc1ccc(C2NCCc3c2[nH]c2ccccc32)cc1COc1ccc(F)cc1 (stereo not given) | > 50 µM (inactive)
Oc1ccc(/C=N/Nc2cc(N3CCOCC3)nc(N3CCOCC3)n2)cc1 | > 50 µM (inactive)
COC(=O)C1=CN(C2CC2)C=C(C(=O)OC)C1c1ccc(C(F)(F)F)cc1 | 30.8 µM
C=CCNC(=O)c1cccc(OC2CCN(CC(C)(C)C)CC2)c1 | > 50 µM (inactive)
CC/C(=N\NC(=O)c1cc(C2CC2)[nH]n1)c1ccccc1 | > 50 µM (inactive)
Cc1c(C#N)c(NC(=O)CCl)n(Cc2ccccc2)c1C | > 50 µM (inactive)
Cc1sc2c(c1C)C(=O)NC(c1ccccc1F)N2 (stereo not given) | > 50 µM (inactive)
Cc1cccc2cc(C#N)c(NCCNC(=S)NCCCN3CCOCC3)nc12 | 39.6 µM
O=C(CSc1nnc(-c2ccc(F)cc2)o1)Nc1ccc(S(=O)(=O)N2CCCC2)cc1 | > 50 µM (inactive)
O=C(CN1CC(=O)Oc2ccccc21)NCc1ccco1 | > 50 µM (inactive)

SMILES | IC50
COc1cc(C2C3CN(C)CC=C3C(C#N)=C(N)C2(C#N)C#N)ccc1OC(C)C (stereo not given) | 12.1 µM
COc1ccccc1C(=O)c1cc2ccc(O)cc2oc1=O | 5.1 µM
CCCn1nc(NC(=O)CC(C)C)c2cc3cccc(C)c3nc21 | 5.82 µM
Oc1ccc(-c2[nH]ncc2-c2cccc3cccnc23)c(O)c1 | > 50 µM (inactive)
CCOC(=O)C1=C(C)NC2=C(C(=O)C(C(=O)OCC)C(c3ccccc3OC)C2)C1c1ccccn1 (stereo not given) | 26.2 µM
CCc1nc(N)c(C#N)c(-c2ccc(F)cc2)c1C | > 50 µM (inactive)
COc1cc2c(cc1OC)CN(Cc1ccccc1)CC2 | > 50 µM (inactive)
COc1ccc(N2C(=O)c3ccccc3NC2c2cccnc2)cc1 (stereo not given) | > 50 µM (inactive)
COCCn1c(N)c(C(=O)OCc2ccccc2)c2nc3ccccc3nc21 | 46.2 µM
Clc1ccc(/C=C\c2nccc3c2[nH]c2ccccc23)cc1 | > 50 µM (inactive)
COc1cc(C(=O)NCCCNc2nc3cc(C)cc(C)c3cc2C#N)cc(OC)c1OC | 29.8 µM
NNC(=O)c1cc2nc(-c3cccs3)cc(C(F)(F)F)n2n1 | > 50 µM (inactive)
C=CCn1c(O)c(C(C)=NCCc2ccccc2)c(=O)[nH]c1=O | > 50 µM (inactive)
COC(=O)C(C)Oc1ccc2c(c1)O/C(=C\c1ccco1)C2=O (stereo not given) | 15.5 µM
CC1(C)CC(=O)C=C(Nc2ccccc2O)C1 | > 50 µM (inactive)
CC(O)CNc1nc2ccccc2n1CC(=O)NC12CC3CC(CC(C3)C1)C2 (stereo not given) | > 50 µM (inactive)
COc1cc(SC)ccc1C(=O)Nc1nc(C)cs1 | > 50 µM (inactive)
C[C@H](O)c1[nH]c2cc(F)ccc2c1[C@H](C)O | > 50 µM (inactive)
Nc1ccccc1C(=O)NNc1c2ccccc2nc2ccccc12 | > 50 µM (inactive)
Cc1cc(/C=c2/sc3nc4ccccc4n3c2=O)c(C)n1-c1ccccn1 | > 50 µM (inactive)
Cc1cc(Nc2ccccc2)nn1C(=O)c1ccccc1 | > 50 µM (inactive)
COc1ccccc1NC(=O)c1cc2ccccc2nc1C | > 50 µM (inactive)
OCCNc1c2ccccc2nc2c(F)c(F)c(F)c(F)c12 | 20.9 µM
COc1ccc(Cl)cc1S(=O)(=O)Nc1noc2ccccc12 | > 50 µM (inactive)
